Experimental data from patent US5155126A, “Treatment of central nervous system disorders with pyrazole, pyrrole and triazole angiotensin-II receptor antagonists” (E. I. du Pont de Nemours and Company, priority 1991, dated 1992).
Values joined by “and” are separate entries in the source; they are usually repeats but may differ in a detail not shown here. Identical values can stand only once. “Also recorded” adds a separate entry of the source.

Tests used:
[1] = tested on: AII-2 receptor (AII receptor subtype-2); conditions: in words; cited from earlier work
AII-1 receptor = AII-1 receptor antagonism (statement); conditions: in words
[2] = tested on: renin-induced disruption of passive avoidance retention; assay: Renin-disrupted passive avoidance retention; type: in vivo, male Sprague-Dawley rats; conditions: for effect on memory / renin-induced amnesia: IVT, in words
Method: Experimentally naive male Sprague-Dawley rats […] (Charles River Breeding Laboratories, Kingston, N.Y.), weighing between 175 to 200 gm were used. The animals were housed four per cage (45.0 L × 20.0 H × 26.0 W cm) with free access to food and water. They were maintained on a 12 h light/dark cycle (lights on 0600 h) and at a room temperature of 22±1° C. with relative humidity of 50±10%.
The experimental sessions were conducted in a two-compartment passive avoidance box. One compartment, made of clear plastic with a perforated clear plastic floor, measured 21(L)=24.5(H)=17(W) cm and was illuminated with a 60 watt incandescent light bulb placed 36 cm above the floor. The other compartment, made of black plastic, measured 30.5 (L)×20.3 (H)×21.5 (W) cm with a floor made of 4 mm stainless steel rods spaced 1.2 cm apart. A grid floor shocker (Coulbourn Instruments) was connected to the steel rods and provided scrambled footshock. The two compartments were separated by a solenoid-operated slide door (Lafayette Instrument Co., Lafayette, Ind.). An electronic counter (Coulbourn Instruments), triggered by the opening or closing of the slide door, recorded acquisition and retention latencies (latencies were defined as the time it took an animal to enter the dark compartment).
Passive avoidance training began by placing the rat into the clear compartment of the two-compartment passive avoidance box. Following a 10 sec delay, the slide door to the dark compartment was raised. Once the rat moved completely into the dark compartment (all four paws on the shock grid floor) the slide door was lowered, and after a 10 sec delay, a 1.0 mA shock was applied to the grid floor for three sec. A second three s shock was delivered after an additional 10 sec delay. The rats were immediately removed from the dark compartment and returned to their home cage. A retention test was given 24 h later. It proceeded in the same manner as the training session except that no shock was applied to the grid floor when the rats were provided access to the dark compartment for a maximum of 300 sec.
All drugs were administered IVT 60 minutes prior to acquisition training in a volume of 5 μL. Doses are expressed as the free base weight of each compound.

[3] = tested on: AII binding sites in the brain; assay: Binding of AII antagonists to sections of brain slices; conditions: in words
[4] = tested on: ACh in the striatum and hypothalamus; conditions: acute or repeated administration; in words; cited from earlier work
uphill avoidance = conditions: acute 30 mg/kg PO; in words; cited from earlier work
[5] = tested on: scopolamine-induced PA amnesia; conditions: three times per day at 1, 3 and 10 mg/kg PO; in words; cited from earlier work
[6] = tested on: scopolamine-induced impairment of eight arm radial maze performance; conditions: 3 mg/kg IP; in words; cited from earlier work
[7] = tested on: memory of previously learned tasks; anticholinergic effect on performance; conditions: in words; cited from earlier work
[8] = tested on: scopolamine-induced disruption of performance; conditions: daily treatment; in words; cited from earlier work
avoidance learning = conditions: renin into lateral ventricle; captopril IVT prior to renin; in words; cited from earlier work
[9] = tested on: light/dark habituation performance; conditions: subchronic treatment; in words; cited from earlier work
[10] = tested on: retention of a passive avoidance response; conditions: injected into dorsal neostriatum; in words; cited from earlier work
[11] = tested on: potassium-stimulated release of ACh in entorhinal cortex; conditions: in vitro, entorhinal cortex from rat brain; in words; cited from earlier work
[12] = tested on: AII in cerebrospinal fluid; conditions: after renin IVT; increased from 40; cited from earlier work

For `O[C@H](CS)[C@H](O)CS` (racemic) [DTT, dithiothreitol], the “inactivation of AII-2 receptor by DTT” value [1] is given as “resistant to DTT inactivation”.

In the case of `CCCc1nc(C(F)(F)F)c(C(=O)O)n1Cc1ccc(-c2ccccc2-c2nnn[nH]2)cc1` [Compound C, 2-n-propyl-1-[(2'-(1H-tetrazol-5-yl)biphenyl-4-yl)methyl]-4-trifluoromethylimidazole-5-carboxylic acid], the “AII-1 receptor antagonist activity” value (AII-1 receptor) is reported as “AII-1 receptor antagonists” and the “effect on memory / renin-induced amnesia” value [2] is reported as “protected against amnesia”.

With `CCCc1nc(C(F)(F)F)c(CO)n1Cc1ccc(-c2ccccc2-c2nnn[nH]2)cc1` [Compound D, 2-n-propyl-5-hydroxymethyl-1-[(2'-(1H-tetrazol-5-yl)biphenyl-4-yl)methyl]-4-trifluoromethylimidazole] the “AII-1 receptor antagonist activity” value (AII-1 receptor) was “AII-1 receptor antagonists” and the “effect on memory / renin-induced amnesia” value [2] was “protected against amnesia”.

In the case of `Cc1cc(Cn2cnc3c2CC(C(=O)O)N(C(=O)C(c2ccccc2)c2ccccc2)C3)ccc1N` (stereo not shown) [EXP655, 1-(4-amino-3-methylphenyl)methyl-5-diphenylacetyl-4,5,6,7-tetrahydro-1H-imidazo[4,5-c]pyridine-6-carboxylic acid], the “sensitivity of AII binding sites in brain” value [3] is reported as “the majority of binding sites in the brain are DTT-insensitive and EXP655-sensitive” and the “effect on memory / renin-induced amnesia” value [2] is reported as “less effective in preventing amnesia”.

In the case of `CCOC(=O)C(CCc1ccccc1)NC(C)C(=O)N1CC2(CC3CCC2CC3)CC1C(=O)O` (stereo not shown) [Hoe 288], the “change of ACh in striatum and hypothalamus” value [4] is listed as “significant decrease in ACh”, the “performance during retention testing, uphill avoidance” value (uphill avoidance) is listed as “improved performance during retention testing” and the “effect on scopolamine-induced PA amnesia” value [5] is listed as “partially reversed the amnesia”. The “effect of muscarinic receptor blockade on performance” value [6] was “partially antagonized the effects of muscarinic receptor blockade”.

In the case of `NCCCC[C@H](OP(=O)(O)CCCCc1ccccc1)C(=O)N1CCC[C@H]1C(=O)O` [SQ 29852], the “effect on anticholinergic effect on performance” value [7] is given as “ameliorate, at least in part” and the “effect on memory of previously learned tasks” value [7] is given as “protective effects on memory of previously learned tasks”.

For `C[C@H](CS)C(=O)N1CCC[C@H]1C(=O)O` [captopril], the “scopolamine-induced disruption of performance” value [8] is given as “prevented”, the “effect on avoidance learning” value (avoidance learning) is given as “prevented the renin-induced avoidance disruption” and the “rate of acquisition of light/dark habituation performance” value [9] is given as “increased the rate of acquisition”. For the same molecule, the “effect on memory / renin-induced amnesia” value [2] was “prevented”.

In the case of `NC(=O)[C@@H]1CCCN1C(=O)[C@H](Cc1cnc[nH]1)NC(=O)[C@@H]1CCC(=O)N1` [thyrotropin releasing hormone], the “effect on retention of a PA response” value [10] is given as “no effect”.

In the case of “AI: printed "AI, but not AI" in b14 (DRVYIHPFHL; Angiotensin-1; UniProt P01019 25-34, looked up)”, the “effect on potassium-stimulated release of ACh” value (shortened to “effect … of ACh”) [11] is listed as “reduced potassium-stimulated release of ACh without effects on basal levels”.

In the case of “AII: Angiotensin-II, a circulating hormone thought to act as a neuropeptide in the CNS (DRVYIHPF; Angiotensin-2; UniProt P01019 25-32, looked up)”, the “effect on retention of a PA response” value [10] is given as “disruption in retention of a PA response” and the “effect … of ACh” value [11] is given as “can inhibit the release of ACh”.

For “[1-sarcosine, 8-threonine]angiotensin-II”, the “effect … of ACh” value [11] is given as “antagonized”.

In the case of lysine-8-vasopressin, the “effect on retention of a PA response” value [10] is listed as “no effect”.

B1: renin: Renin (Sigma Chemicals), a stimulator of endogenous AII biosynthesis (protein, UniProt P00797 67-406, looked up)
Renin: LTLGNTTSSVILTNYMDTQYYGEIGIGTPPQTFKVVFDTGSSNVWVPSSKCSRLYTACVYHKLFDASDSSSYKHNGTELTLRYSTGTVSGFLSQDIITVGGITVTQMFGEVTEMPALPFMLAEFDGVVGMGFIEQAIGRVTPIFDNIISQGVLKEDVFSFYYNRDSENSQSLGGQIVLGGSDPQHYEGNFHYINLIKTGVWQIQMKGVSVGSSTLLCEDGCLALVDTGASYISGSTSSIEKLMEALGAKKRLFDYVVKCNEGPTLPDISFHLGGKEYTLTSADYVFQESYSSKKLCTLAIHAMDIPPPTGPTWALGATFIRKFYTEFDRRNNRIGFALAR
In the case of B1, the “AII in cerebrospinal fluid” value [12] is given as “about 5000 fmol per mL”, the “effect on avoidance learning” value (avoidance learning) is given as “disruption of avoidance learning” and the “effect on memory / renin-induced amnesia” value [2] is given as “produces memory deficit; also recorded: dose-related amnesia”. The “Median Retention Latency” value ([2]; renin 1.0 μg/5 μL IVT alone) was 48 s and 32 s and 27 s and the “Median Retention Latency” value ([2]; renin 5.0 μg/5 μL IVT alone) was 17 s.
